Results published in patent US9597407B2, “Targeted antimicrobial moieties” (C3 Jian, Inc., priority 2009, dated 2017).
Entries after “also recorded” stand apart in the source; their conditions may differ. Ends that are not written are not given here.

What was measured:
[1] = test system: bacteria; experiment: Binding of targeting peptides to microorganisms (Table 3); details: preferably 1x PBS; for Target(s) (microorganisms bound by the targeting peptide) / Target(s) (microorganism bound by the targeting peptide): peptide binding in aqueous buffers that varied depending on peptide solubility
[2] = test system: microorganisms; experiment: Morphology, biofilm and growth disruption by peptides (Table 5); format: cell-based; set-up: key: A: Peptide aggregates; B: Less hyphal formation; Clumps; Diffuse clumps and small polyps; F: Diffuse growth; H: Thin; I: Growth inhibition; Microcolony formation; Rippled; Small polyps; Thick; W: Halo formation on top, microlonies on bottom
From the text: In certain embodiments peptides that induce alterations in phenotype or other biological activities can also be used as antimicrobial effector moieties.

[3] = microorganism the targeting peptide binds, binding in aqueous buffers that varied with peptide solubility
[4] = microorganism bound by the targeting peptide, binding in aqueous buffers chosen by peptide solubility

PF-010 (chain 1 MDIDVNKLLQAFVYFKSFEKLRHNNS; chain 2 MDIDVNKLLQAFVYFKSFEKLRHNNS; Peptide with targeting and/or antimicrobial activity)
Target(s) [1, 3]: S. epidermidis; also recorded: M. luteus; also recorded: E. coli; also recorded: C. albicans
Organism, effect ([2]; C. jeikeium): C. jeikeium (A)
Organism, effect ([2]; M. luteus): M. luteus (A)
Organism, effect ([2]; MRSA): MRSA (R)
Organism, effect ([2]; S. epidermidis): S. epidermidis (S)

PF-069 (FDPVPLKKDKSASKHSHKHNH; Peptide with targeting and/or antimicrobial activity)
Target(s) [1, 3]: E. faecalis; also recorded: C. jejuni
Organism, effect ([2]; B. subtilis): B. subtilis (D)
Organism, effect ([2]; C. jejuni): C. jejuni (R)

PF-429 (AATLICVGSGIMSSL; Peptide with targeting and/or antimicrobial activity)
Target(s) (microorganisms bound by the targeting peptide) [1]: S. epidermidis; also recorded: S. pneumoniae; also recorded: C. jeikeium
Organism, effect (morphology, biofilm and growth disruption) ([2]; E. faecalis): E. faecalis (C)
Organism, effect (morphology, biofilm and growth disruption) ([2]; MRSA): MRSA (C)
Organism, effect (morphology, biofilm and growth disruption) ([2]; S. epidermidis): S. epidermidis (C)
Organism, effect (morphology, biofilm and growth disruption) ([2]; S. pneumoniae): S. pneumoniae (M)

PF-C143 (VVFGGGDRLV; Peptide with targeting and/or antimicrobial activity)
Target(s) (microorganism bound by the targeting peptide) [1]: A. naeslundii; also recorded: F. nucleatum; also recorded: P. gingivalis; also recorded: S. mutans; also recorded: T. denticola
Organism, effect (morphology, biofilm and growth disruption) ([2]; F. nucleatum): F. nucleatum (C)

PF-607 (YIESDPRKFDYIFGAIRDH; Peptide with targeting and/or antimicrobial activity)
Target(s) (microorganism bound by the targeting peptide) [1]: S. epidermidis and P. mirabilis and E. coli and MRSA and S. pneumoniae and C. jeikeium
Organism, effect (morphology, biofilm and growth disruption) ([2]; C. jejuni): C. jejuni (R)
Organism, effect (morphology, biofilm and growth disruption) ([2]; E. faecalis): E. faecalis (A)
Organism, effect (morphology, biofilm and growth disruption) ([2]; MRSA): MRSA (S)
Organism, effect (morphology, biofilm and growth disruption) ([2]; S. epidermidis): S. epidermidis (M)
Organism, effect (morphology, biofilm and growth disruption) ([2]; S. pneumoniae): S. pneumoniae (R)

WSRVPGHSDTGWKVWHRW-NH2 [PF-547]
Target(s) (microorganisms bound by the targeting peptide) [1]: S. epidermidis and E. coli and P. aeruginosa and C. albicans and MRSA and S. pneumoniae and E. faecalis
Organism, effect (morphology, biofilm and growth disruption) ([2]; B. subtilis): B. subtilis (I)
Organism, effect (morphology, biofilm and growth disruption) ([2]; E. faecalis): E. faecalis (R)
Organism, effect (morphology, biofilm and growth disruption) ([2]; MRSA): MRSA (M)
Organism, effect (morphology, biofilm and growth disruption) ([2]; S. epidermidis): S. epidermidis (R)

PF-C052 (SRFRNGV; Peptide with targeting and/or antimicrobial activity)
Target(s) (microorganism bound by the targeting peptide) [1]: A. naeslundii; also recorded: F. nucleatum; also recorded: S. mutans
Organism, effect (morphology, biofilm and growth disruption) ([2]; P. gingivalis): P. gingivalis (H)

PF-405 (LVRIEVDDLEEWYERNFI; Peptide with targeting and/or antimicrobial activity)
Target(s) (microorganisms bound by the targeting peptide) [1]: S. epidermidis; also recorded: E. coli; also recorded: E. faecalis
Organism, effect ([2]; MRSA): MRSA (M)

PF-594 (IVSAIV; Peptide with targeting and/or antimicrobial activity)
Target(s) (microorganisms bound by the targeting peptide) [1]: C. jeikeium
Organism, effect (morphology, biofilm and growth disruption) ([2]; E. faecalis): E. faecalis (C)

PF-350 (LAVILRAIVY; Peptide with targeting and/or antimicrobial activity)
Target(s) [1, 4]: S. epidermidis; also recorded: E. coli; also recorded: E. faecalis; also recorded: C. jeikeium; also recorded: C. jejuni
Organism, effect ([2]; E. coli): E. coli (C)
Organism, effect ([2]; MRSA): MRSA (C)
Organism, effect ([2]; S. epidermidis): S. epidermidis (C)

PF-176 (RLTSNQFLTRITPFVFAQH; Peptide with targeting and/or antimicrobial activity)
Target(s) [1, 4]: S. epidermidis and M. luteus and P. mirabilis and E. coli and C. albicans and MRSA and E. faecalis and C. jeikeium
Organism, effect ([2]; C. jeikeium): C. jeikeium (D)
Organism, effect ([2]; M. luteus): M. luteus (C)
Organism, effect ([2]; S. epidermidis): S. epidermidis (C)

RESKLIAMADMIRRRI-NH2 [PF-545]
Target(s) (microorganisms bound by the targeting peptide) [1]: S. epidermidis; also recorded: E. coli; also recorded: P. aeruginosa; also recorded: S. pneumoniae; also recorded: E. faecalis; also recorded: C. jeikeium
Organism, effect (morphology, biofilm and growth disruption) ([2]; B. subtilis): B. subtilis (I)
Organism, effect (morphology, biofilm and growth disruption) ([2]; C. albicans): C. albicans (B)
Organism, effect (morphology, biofilm and growth disruption) ([2]; C. jeikeium): C. jeikeium (H)
Organism, effect (morphology, biofilm and growth disruption) ([2]; E. faecalis): E. faecalis (H)

PF-682 (chain 1 RRGKSEQGLSRR; chain 2 RRGKSEQGLSRR; Peptide with targeting and/or antimicrobial activity)
Target(s) (microorganism bound by the targeting peptide) [1]: Mycobacteria spp
Organism, effect (morphology, biofilm and growth disruption) ([2]; S. pneumoniae): S. pneumoniae (A)

HCVIGNVVDIANLLKRRAVYRDIADVIKMR [PF-071]
Target(s) [1, 3]: S. epidermidis and E. coli and P. aeruginosa and C. albicans and MRSA
Organism, effect ([2]; B. subtilis): B. subtilis (D)
Organism, effect ([2]; C. albicans): C. albicans (B)
Organism, effect ([2]; C. jejuni): C. jejuni (A)
Organism, effect ([2]; M. luteus): M. luteus (R)
Organism, effect ([2]; MRSA): MRSA (C)
Organism, effect ([2]; S. epidermidis): S. epidermidis (R)
Organism, effect ([2]; S. pneumoniae): S. pneumoniae (A)
